Data set [1] is described as follows: In vitro drug delivery rate across Carbosil membrane. It counts as in vitro ADME. The protocol:
In vitro drug delivery rate determination from water-soluble PSA matrices was performed using human cadaver skin or a skin-imitating Carbosil membrane to protect the matrices from dissolving in the receptor solution. The patch was adhered to the center of a Carbosil membrane sheet of twice its area. The membrane margins were then wrapped around the sample. The back side of the packet was closely attached to a steel plate-holder to prevent direct contact of the matrix with the receptor solution. In a similar fashion, cadaver skin epidermis can be used instead of a Carbosil membrane. The holder with the wrapped sample was then submerged into an aqueous sink and in vitro drug delivery rate was determined using a USP rotating cylinder method paddle-over-disc. The rate of drug appearance rate in a receptor solution (0.15 M NaCl) at 35.0±0.5° C. was determined spectrophotometrically.

The mark [2] stands for this setting: Styrene butadiene rubber matrix.

Read-outs that look alike come from different tables or passages of the source.

For `O=[N+]([O-])OCC(CO[N+](=O)[O-])O[N+](=O)[O-]` [Nitroglycerin], the “Delivery rate from hydrophilic matrix via Carbosil” value (“Delivery rate” below) in data set [1] is reported as 160 ± 40 μg/cm^2h.

Silabolin: the “Release rate from hydrophobic matrices” value under setting [2] is on record as 16 ± 7 μg/cm^2h. For the same compound, in data set [1] (hydrophilic PVP-PEG matrix), the “Delivery rate” value is recorded as 131 ± 30 μg/cm^2h.

For `CC(C)NCC(O)COc1cccc2ccccc12` (stereo not shown) [Propranolol], the “Release rate from hydrophobic matrices” value under setting [2] is on record as 56 ± 4 μg/cm^2h. Also, the “Delivery rate” value in data set [1] (hydrophilic PVP-PEG matrix) is on record as 118 ± 25 μg/cm^2h.

Turning to `Clc1cccc(Cl)c1N=C1NCCN1` [Clonidine], the “Release rate from hydrophobic matrices” value (PIB matrix (Catapress ® TTS)) came out at 1.6 ± 0.2 μg/cm^2h. Also, the “Delivery rate” value in data set [1] (hydrophilic PVP-PEG matrix) is on record as 5 ± 2 μg/cm^2h.

The values above are taken from USRE45666E1, “Preparation of hydrophilic pressure sensitive adhesives having optimized adhesive properties” (priority 2000, dated 2015).
